The values below come from US20090209426A1, “HERBICIDAL MIXTURE” (priority 2006, published 2009).

For the test, the system named is Digitaria nuda. Briefly: Test A: greenhouse postemergence herbicidal effect on Digitaria nuda, visual rating 21 DAT. The format is in vivo. How it is done: Square plastic pots (10 cm on each side) were filled to the rim with a Redi-earth® (Sun Gro Horticulture, Bellevue, Wash.) planting medium containing 55-65% of Canadian sphagnum peat moss, horticultural grade vermiculite, dolomitic limestone and a wetting agent. The soil was tamped firm to a uniform level of 2.5 cm below the rim of the pot. A measured amount of Digitaria nuda seed was scattered on the soil surface of each pot. Seeded pots were covered with approximately 50 mL of the same planting media, tamped, and set out on a greenhouse bench.
The pots were watered thoroughly at once and then as needed with a dilute balanced N—P—K fertilizer solution to provide 218 ppm nitrogen. Artificial lighting was used to supplement natural light to produce a 14-hour photoperiod. Greenhouse temperatures were targeted for 27° C. during the daytime and 21° C. at night. Once the plants reached their appropriate growth stage, the plants were sorted into test units prior to the herbicide application. Digitaria nuda was 5 to 7 cm in height and at the 3-leaf stage at the time of application.
Test chemicals included diuron in the form of KARMEX® Herbicide, which is a 80 weight (wt.) % wettable granule formulation, a mixture of diuron with hexazinone in the form of DUPONT™ K4™ Herbicide, which a granule formulation containing 468 g of diuron and 132 g of hexazinone per kg of formulation, another mixture of diuron with hexazinone in the form of ADVANCE™ Herbicide, which is a wettable granule formulation containing 533 g of diuron and 67 g of hexazinone per kg of formulation, and mesotrione in the form of the commercial product CALLISTO® Herbicide, which is a 40 weight-volume (wt.-vol.) % suspension concentrate containing 400 g of mesotrione per liter of formulation. The application rates for this test were selected based on the recommended use rate of each compound. Application rates of diuron were 1800 g a.i./ha alone from KARMEX® Herbicide, 936 g a.i./ha from DUPONT™ K4™ Herbicide in combination with 264 g a.i./ha of hexazinone, and 1599 g a.i./ha from ADVANCE™ Herbicide in combination with 201 g a.i./ha of hexazinone. […] Furthermore diuron was tested alone and together with hexazinone in combination with mesotrione at these application rates.
The herbicides were diluted in a measured amount of carrier solution to make stock solutions. The carrier solution was water containing 0.25% v/v of non-ionic adjuvant X-77. The stock solutions were all mixed for 10 minutes before aliquots were taken to make individual treatment solutions. Vials were then brought up to final spray volume of 24 mL. The treatments were sprayed at a pressure of 276 kPa through a T-Jet 8002E (Spraying Systems Co., Wheaton, Ill.) flat fan nozzle onto the surface of the plants in a stationary belt sprayer system calibrated to deliver 280 L/Ha. Treatments were replicated three times.
The sprayed plants were placed in the greenhouse for observation; height and leaf stages were then recorded. Plants were maintained by watering as needed and in the same manner in which they were propagated with respect to nutrition, light, and day length. Visual evaluations were made 21 days after treatment (DAT). A numerical rating system was used to describe the visual response of each treatment on a scale of 0 to 100. Numerical ratings were expressed as the percent effect as compared to the control plants, calculated as the mean of the three replicates. Zero (0%) indicates no visual response, and 100% indicates plant death or a moribund state expected to rapidly end in death.
Colby's equation was used to calculate the expected additive herbicidal effect of the mixtures of mesotrione with diuron, alone and in combination with hexazinone. Colby's equation (S. R. Colby, “Calculating Synergistic and Antagonistic Responses of Herbicide Combinations,” Weeds, 15(1), pp 20-22 (1967)) calculates the expected additive effect of herbicidal mixtures, and for two active ingredients is of the form: […]

On to `CN(C)C(=O)Nc1ccc(Cl)c(Cl)c1` [Diuron, N′-(3,4-dichlorophenyl)-N,N-dimethylurea], for which, under “diuron 1800, hexazinone 0, mesotrione 0 g a.i./ha (KARMEX), mean of 3 replicates”, the “Herbicidal Effect Observed” value turned out to be 20%.
For the molecule `CS(=O)(=O)c1ccc(C(=O)C2C(=O)CCCC2=O)c([N+](=O)[O-])c1` [Mesotrione, 2-[4-(methylsulfonyl)-2-nitrobenzoyl]-1,3-cyclohexanedione], the “Herbicidal Effect Observed” value runs as follows: (mesotrione 5 g a.i./ha alone (CALLISTO)) 3%; (mesotrione 10 g a.i./ha alone) 17%; (mesotrione 20 g a.i./ha alone) 33%; (mesotrione 30 g a.i./ha alone) 50%; (mesotrione 40 g a.i./ha alone) 53%; (mesotrione 60 g a.i./ha alone) 73%. Besides, the “Herbicidal Effect Observed” value (mesotrione 90 g a.i./ha alone) is given as 88%.
